The text below walks through data of patent US8546414B2, “Ion channel modulators and methods of use” (Vertex Pharmaceuticals Incorporated, priority 2004, dated 2013).

The conditions of assay [1]: neuropathic pain; cited from earlier work.
Assay [2] concerns the target NaV1.6 (Homo sapiens, UniProt Q9UQD0). As to conditions: read-out: TTX IC50; cited from earlier work.
Assay [3] has as its target T1, NaV1.8 (Homo sapiens, UniProt Q9Y5Y9). Particulars: read-out: TTX IC50; cited from earlier work.
Target sequence in this assay (Q9Y5Y9 whole entry, looked up): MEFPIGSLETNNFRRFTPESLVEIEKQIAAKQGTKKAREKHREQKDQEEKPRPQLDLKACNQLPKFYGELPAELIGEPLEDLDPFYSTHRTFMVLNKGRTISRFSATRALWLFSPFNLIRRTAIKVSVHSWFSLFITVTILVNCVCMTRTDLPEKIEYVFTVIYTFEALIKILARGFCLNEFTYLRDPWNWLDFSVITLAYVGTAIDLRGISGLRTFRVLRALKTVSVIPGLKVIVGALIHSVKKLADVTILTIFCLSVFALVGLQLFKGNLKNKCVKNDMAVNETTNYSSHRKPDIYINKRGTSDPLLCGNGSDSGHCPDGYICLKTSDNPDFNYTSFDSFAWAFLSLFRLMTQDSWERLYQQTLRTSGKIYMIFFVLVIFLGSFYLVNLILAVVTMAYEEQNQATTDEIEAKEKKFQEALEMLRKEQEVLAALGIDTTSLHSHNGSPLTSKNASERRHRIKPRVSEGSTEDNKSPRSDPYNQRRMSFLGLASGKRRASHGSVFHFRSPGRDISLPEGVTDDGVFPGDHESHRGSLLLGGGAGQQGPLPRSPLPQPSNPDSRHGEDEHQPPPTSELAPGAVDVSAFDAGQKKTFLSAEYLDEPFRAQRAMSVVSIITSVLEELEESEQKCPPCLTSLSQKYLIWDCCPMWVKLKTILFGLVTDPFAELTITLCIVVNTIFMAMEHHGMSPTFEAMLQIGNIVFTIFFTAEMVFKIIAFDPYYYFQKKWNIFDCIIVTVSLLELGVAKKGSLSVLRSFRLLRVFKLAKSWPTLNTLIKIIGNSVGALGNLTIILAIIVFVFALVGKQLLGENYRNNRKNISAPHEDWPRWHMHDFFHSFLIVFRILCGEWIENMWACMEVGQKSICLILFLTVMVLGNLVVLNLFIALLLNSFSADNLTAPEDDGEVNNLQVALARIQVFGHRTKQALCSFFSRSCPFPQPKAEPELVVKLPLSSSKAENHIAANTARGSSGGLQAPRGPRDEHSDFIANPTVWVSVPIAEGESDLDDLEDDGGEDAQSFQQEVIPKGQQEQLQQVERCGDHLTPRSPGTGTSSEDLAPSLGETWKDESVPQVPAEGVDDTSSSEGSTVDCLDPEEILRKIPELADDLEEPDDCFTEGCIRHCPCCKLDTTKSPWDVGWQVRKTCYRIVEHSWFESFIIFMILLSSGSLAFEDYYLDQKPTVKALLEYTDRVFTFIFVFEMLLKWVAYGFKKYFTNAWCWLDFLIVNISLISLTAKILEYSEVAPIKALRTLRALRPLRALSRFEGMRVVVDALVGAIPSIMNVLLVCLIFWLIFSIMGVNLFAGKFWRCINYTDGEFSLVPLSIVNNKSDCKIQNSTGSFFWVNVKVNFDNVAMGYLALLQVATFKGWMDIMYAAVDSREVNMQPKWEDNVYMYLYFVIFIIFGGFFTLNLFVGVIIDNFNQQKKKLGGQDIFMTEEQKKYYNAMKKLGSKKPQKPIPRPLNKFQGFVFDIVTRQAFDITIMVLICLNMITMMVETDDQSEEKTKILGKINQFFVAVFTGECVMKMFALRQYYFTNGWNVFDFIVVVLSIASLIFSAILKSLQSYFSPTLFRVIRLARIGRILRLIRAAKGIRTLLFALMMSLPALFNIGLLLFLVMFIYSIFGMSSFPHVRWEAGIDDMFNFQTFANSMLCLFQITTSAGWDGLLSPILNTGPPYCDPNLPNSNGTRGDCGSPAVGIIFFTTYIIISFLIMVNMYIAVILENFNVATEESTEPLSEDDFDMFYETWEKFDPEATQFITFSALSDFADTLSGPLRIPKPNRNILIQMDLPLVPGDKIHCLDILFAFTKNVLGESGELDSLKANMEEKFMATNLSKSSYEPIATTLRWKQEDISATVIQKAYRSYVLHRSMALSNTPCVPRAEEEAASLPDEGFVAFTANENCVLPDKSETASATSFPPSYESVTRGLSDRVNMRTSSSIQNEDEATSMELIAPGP
Assay [4] concerns the target T2, NaV1.3 (Homo sapiens, UniProt Q9NY46).
T2 construct: expressed in transfected cells; host or cells: HEK293
As to conditions: read-out: TTX IC50; cited from earlier work.

For assay [5], the target named is NaV1.9 (Homo sapiens, UniProt Q9UI33). As to conditions: read-out: TTX IC50; cited from earlier work.
The target of assay [6] is NaV1.1 (Homo sapiens, UniProt P35498). Particulars: read-out: TTX IC50; cited from earlier work.
Assay [7] addresses NaV1.2 (Homo sapiens, UniProt Q99250). As to conditions: read-out: TTX IC50; cited from earlier work.
Assay [8] deals with T3, CaV2.2 (Homo sapiens, UniProt Q00975).
T3 construct: expressed in transfected cells; host or cells: HEK293
Briefly: VIPR optical membrane potential assay with electrical stimulation, CaV2.2. The assay is classed as cell-based. Particulars: Table 9, CaV 2.2 receptors. The procedure, abridged: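 HEK293 cells stably expressing CaV2.2 stained with CC2-DMPE/DiSBAC2(3) voltage-sensitive dyes (10 μM final CC2-DMPE, 30 min, RT), then compound added and cells electrically stimulated for 3-5 s. Read-out: background-subtracted 460/580 nm emission ratio; response R=Rf/Ri (post- vs pre-stimulus ratio); antagonism seen as reduced response.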

Assay [9] concerns the target T2, NaV1.3. Briefly: VIPR optical membrane potential assay with electrical stimulation, NaV1.3. Type of assay: cell-based. Particulars: Table 9, NaV 1.3 receptors. The procedure, abridged:
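HEK293 cells stably expressing NaV1.3, stained with CC2-DMPE (10 μM final) then DiSBAC2(3) with ABSC1, 30 min each at RT; compounds added with oxonol. Electrical stimulation for 3 s; 460/580 nm background-subtracted emission ratio Rf/Ri, normalised to tetracaine (positive) and untreated (negative) controls.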

Assay [10] concerns the target T1, NaV1.8. Briefly: VIPR optical membrane potential assay, NaV1.8 (other subtypes in an analogous mode). Type of assay: cell-based. Particulars: Table 9, NaV 1.8 receptors. The procedure, abridged: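 Cells expressing the NaV subtype stained with coumarin and DiSBAC2(3) membrane-potential dyes, then incubated with test compound for 20-30 minutes. Depolarization evoked by sodium addback and read optically on VIPR; block measured as reduced membrane-potential response, with tetracaine as positive control.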
Target sequence in this assay (Q9Y5Y9 whole entry): as the sequence (Q9Y5Y9 whole entry, looked up) above

pIC50: −log10 of the molar value. Read-outs that look alike come from different tables or passages of the source.

T2 sequence (Q9NY46 whole entry): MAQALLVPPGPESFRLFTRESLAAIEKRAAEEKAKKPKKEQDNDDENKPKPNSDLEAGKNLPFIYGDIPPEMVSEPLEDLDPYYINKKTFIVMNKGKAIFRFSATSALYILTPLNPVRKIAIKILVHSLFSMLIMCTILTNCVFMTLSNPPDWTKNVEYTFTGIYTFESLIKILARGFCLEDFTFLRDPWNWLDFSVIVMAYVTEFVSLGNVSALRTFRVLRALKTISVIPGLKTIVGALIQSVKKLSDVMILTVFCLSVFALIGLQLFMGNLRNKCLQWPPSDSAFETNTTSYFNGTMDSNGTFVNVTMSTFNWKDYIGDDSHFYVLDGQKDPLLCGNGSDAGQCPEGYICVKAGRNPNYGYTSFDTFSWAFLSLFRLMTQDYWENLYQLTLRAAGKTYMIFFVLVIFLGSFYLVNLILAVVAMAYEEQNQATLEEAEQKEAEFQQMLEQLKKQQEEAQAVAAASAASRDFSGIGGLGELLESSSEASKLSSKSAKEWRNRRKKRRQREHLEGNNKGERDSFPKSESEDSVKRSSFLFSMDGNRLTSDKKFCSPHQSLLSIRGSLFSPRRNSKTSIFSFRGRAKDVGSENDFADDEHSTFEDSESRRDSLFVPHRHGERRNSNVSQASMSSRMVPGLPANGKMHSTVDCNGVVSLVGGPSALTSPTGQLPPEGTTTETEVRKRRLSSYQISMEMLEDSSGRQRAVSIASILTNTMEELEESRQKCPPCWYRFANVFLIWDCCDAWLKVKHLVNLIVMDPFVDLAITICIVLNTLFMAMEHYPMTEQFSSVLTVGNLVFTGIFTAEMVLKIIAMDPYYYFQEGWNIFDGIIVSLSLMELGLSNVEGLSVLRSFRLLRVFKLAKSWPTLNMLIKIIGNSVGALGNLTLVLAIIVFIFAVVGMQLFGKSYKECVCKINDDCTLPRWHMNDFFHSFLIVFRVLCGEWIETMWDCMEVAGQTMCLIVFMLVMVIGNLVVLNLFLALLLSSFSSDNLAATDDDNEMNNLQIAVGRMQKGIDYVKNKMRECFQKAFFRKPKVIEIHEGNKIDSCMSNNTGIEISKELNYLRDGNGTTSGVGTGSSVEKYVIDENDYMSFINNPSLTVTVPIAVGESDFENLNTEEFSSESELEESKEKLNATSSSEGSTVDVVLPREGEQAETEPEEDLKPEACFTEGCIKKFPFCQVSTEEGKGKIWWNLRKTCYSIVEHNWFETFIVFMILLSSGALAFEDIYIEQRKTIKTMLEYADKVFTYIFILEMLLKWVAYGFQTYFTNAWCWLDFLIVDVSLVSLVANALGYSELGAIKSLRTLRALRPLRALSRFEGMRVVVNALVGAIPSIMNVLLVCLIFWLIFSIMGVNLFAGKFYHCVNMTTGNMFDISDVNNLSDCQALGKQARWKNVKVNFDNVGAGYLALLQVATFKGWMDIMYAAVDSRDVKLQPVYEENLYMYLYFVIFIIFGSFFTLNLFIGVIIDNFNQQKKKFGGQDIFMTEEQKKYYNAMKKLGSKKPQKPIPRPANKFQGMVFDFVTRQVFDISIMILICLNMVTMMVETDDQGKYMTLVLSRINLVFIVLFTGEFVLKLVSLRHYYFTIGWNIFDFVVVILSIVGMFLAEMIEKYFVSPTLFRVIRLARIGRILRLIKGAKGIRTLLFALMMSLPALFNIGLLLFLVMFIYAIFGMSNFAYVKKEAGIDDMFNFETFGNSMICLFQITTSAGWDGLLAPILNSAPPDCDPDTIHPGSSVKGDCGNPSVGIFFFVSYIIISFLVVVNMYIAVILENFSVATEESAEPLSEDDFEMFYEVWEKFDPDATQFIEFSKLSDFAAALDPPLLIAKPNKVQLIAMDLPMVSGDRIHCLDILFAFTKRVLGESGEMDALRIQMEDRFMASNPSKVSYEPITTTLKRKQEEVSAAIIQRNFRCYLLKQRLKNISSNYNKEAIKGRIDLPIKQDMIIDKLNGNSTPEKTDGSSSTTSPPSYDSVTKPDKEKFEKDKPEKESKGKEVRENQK

`NCC1(CC(=O)O)CCCCC1` [Gabapentin]: the “patients in whom it works” value in [1] was 60%.
`NC1=N[C@H](O)[C@H]2[C@H]3O[C@]4(O)O[C@@H]([C@@H](O)[C@@]2(N1)[C@@H]4O)[C@]3(O)CO` [TTX, tetrodotoxin]: the pIC50 (in general, −log10 of the IC50, conventionally taken in molar units) was 8.22 in assay [2]; less than 4.30 in assay [3]; 7.82 in assay [4]; 6.00 in assay [5]; 8.00 in assay [6]; 8.00 in [7].
Turning to `COc1cccc(CN(C(=O)c2cnc(NC(C)c3ccccc3)nc2-c2ccccc2F)C(C)C)c1` (stereo not shown) [compound 188], the pIC50 in assay [8] is more than 5.70; in assay [9] it was more than 5.70; in assay [10], 5.00 to 5.70.
Turning to `COc1cccc(N(C(=O)c2cnc(N3CCC4CCCCC4C3)nc2-c2ccccc2F)C2CC2)c1` (stereo not shown) [compound 189], the pIC50 is 5.00 to 5.70 in assay [8], less than 5.00 in assay [9] and less than 5.00 in [10].
For `COc1cccc(N(C(=O)c2cnc(N3CCOCC3)nc2-c2ccccc2F)C2CCC2)c1` [compound 190], the pIC50 is less than 5.00 in assay [8], 5.00 to 5.70 in [9] and less than 5.00 in [10].
As to `O=C(c1cnc(N2CCOCC2)nc1-c1ccccc1F)N1CCCC(c2ccc(F)cc2)C1` (stereo not shown) [compound 191], the pIC50 in assay [8], in assay [9] and in assay [10] was less than 5.00 each time.
In the case of `Cc1nc(N2CCCCC2)nc(-c2ccccc2F)c1C(=O)N(Cc1ccc2c(c1)CCO2)C1CC1` [compound 192], the pIC50 in [8], in assay [9] and in assay [10] was less than 5.00 each time.
As to `COc1ccc(CN(C(=O)c2cnc(N3CCN(C)CC3)nc2-c2ccccc2F)C2CC2)cc1` [compound 193], the pIC50 in assay [8], in [9] and in assay [10] was less than 5.00 each time.
Take `CC(C)N(Cc1ccccc1)C(=O)c1cnc(N2CCOCC2)nc1-c1ccccc1Cl` [compound 194, N-benzyl-4-(2-chlorophenyl)-N-isopropyl-2-morpholinopyrimidine-5-carboxamide]: the figures for the pIC50 in assay [8], in assay [9] and in assay [10] were more than 5.70, 5.00 to 5.70 and 5.00 to 5.70, respectively.
On to `O=C(c1cnc(N2CCOCC2)nc1-c1ccccc1F)N(Cc1cccc(C(F)(F)F)c1)C1CC1` [compound 195], for which the figures for the pIC50 in assay [8], in assay [9] and in assay [10] were 5.00 to 5.70, less than 5.00 and less than 5.00, respectively.
Consider `O=C(NC1CCCCC1)c1cnc(N2CCOCC2)nc1-c1ccccc1F` [compound 196], for which the pIC50 in [8], in assay [9] and in [10] was less than 5.00 each time.
For `COc1cccc(N(C(=O)c2cnc(N3CCOCC3)nc2-c2ccccc2F)C2CCOCC2)c1` [compound 197], the pIC50 in [8], in [9] and in [10] was less than 5.00 each time.
With `CC(C)N(Cc1ccc(N2CCCC2)cc1)C(=O)c1cnc(N2CCCCC2)nc1-c1ccccc1Cl` [compound 198], the pIC50 is 5.00 to 5.70 in assay [8], less than 5.00 in assay [9] and less than 5.00 in assay [10].
On to `CN(CCc1ccccc1)C(=O)c1cnc(N2CCOCC2)nc1-c1ccccc1F` [compound 199], for which the pIC50 in [8], in assay [9] and in [10] was less than 5.00 in each case.
On to `Cc1nc(N2CCOCC2)nc(-c2ccccc2F)c1C(=O)N(Cc1ccc2c(c1)CCO2)C1CC1` [compound 200], for which the pIC50 was 5.00 to 5.70 in assay [8], 5.00 to 5.70 in assay [9] and less than 5.00 in assay [10].
On to `CC(C)N(C(=O)c1cnc(N2CCSCC2)nc1-c1ccccc1F)c1ccccc1` [compound 201], for which the results for the pIC50 in assay [8], in [9] and in [10] were 5.00 to 5.70, 5.00 to 5.70 and less than 5.00, respectively.
With `CC(C)N(C(=O)c1cnc(N2CCOCC2)nc1-c1ccccc1F)c1cccc(C#N)c1` [compound 202], the pIC50 in [8], in assay [9] and in assay [10] was less than 5.00 in each case.
Regarding `COc1cccc(N(C(=O)c2cnc(N3CCCCC3)nc2-c2ccccc2Cl)C2CCOCC2)c1` [compound 203], the negative-log IC50 (pIC50) in assay [8], in assay [9] and in assay [10] was less than 5.00 each time.
For the compound `O=C(c1cnc(N2CCSCC2)nc1-c1ccccc1F)N(Cc1cccc(-c2ccncc2)c1)C1CC1` [compound 204], the pIC50 in assay [8] is 5.00 to 5.70; in assay [9], 5.00 to 5.70; in assay [10], less than 5.00.
In the case of `O=C(c1cnc(N2CCOCC2)nc1-c1ccccc1F)N(Cc1ccncc1)C1CC1` [compound 205], the pIC50 in assay [8], in assay [9] and in assay [10] was less than 5.00 in each case.
Regarding `O=C(c1cnc(N2CCSCC2)nc1-c1ccccc1F)N1Cc2ccccc2C1` [compound 206], the pIC50 in assay [8], in [9] and in assay [10] was less than 5.00 throughout.
For `CC(C)N(Cc1ccccc1)C(=O)c1cnc(Nc2ccc(Cl)cc2)nc1-c1ccccc1F` [compound 207], the pIC50 in [8], in assay [9] and in assay [10] was less than 5.00 throughout.
